Results on three compounds are retold here after patent US20240390335A1, “PHARMACEUTICAL COMPOSITION CONTAINING BETA-LACTAM COMPOUND AND USE THEREOF” (priority 2021, published 2024).

Each structure is given as a SMILES string. In brackets after ≈: the same amount, converted by molar mass. Read-outs that look alike come from different tables or passages of the source. Peptide text beside a SMILES is read from it. * marks the point of attachment. βNA = c1ccc2cc(N*)ccc2c1

For orientation: MIC means the lowest concentration that inhibits growth of the organism.

Common to all, as to assay type: cell-based
Experiment [1] deals with Klebsiella pneumoniae. The experiment is described as follows: MIC assay of individual compounds (microdilution, CLSI/NCCLS). Particulars: Klebsiella pneumoniae, read-out: MIC. The procedure:
(§1) Mueller-Hinton broth (MH broth) medium, Trypticase Soy Broth (TSB Broth) medium, purchased from BD Difco, Cockeysville, MD, USA; • 96-well plate: Corning Costar, Cambridge, MA, USA; • Test method: the antibacterial activities were tested by the microdilution method according to the CLSI/NCCLS standard.
(§2) (1) Preparation of the test samples: 4 mg of each sample was taken, and was prepared into a test solution at 1,024 μg/mL with MH broth, and the test solution was diluted two-fold in a 96-well plate to prepare solutions of a series of gradient concentrations, the volume in each well being 90 μL.
(§3) (2) Preparation of a bacteria solution: The test strains were amplified by Trypticase Soy Broth (TSB Broth) according to the CLSI/NCCLS standard.
(§4) (3) Addition of the samples: a bacteria solution with a concentration of 6×10^5 cfu/mL was prepared, and 10 μL of the bacteria solution was pipetted into each well of the 96-well plate. Three parallel experiments were set up for each concentration and the results were averaged. To the negative control group, 10 μL of the bacterial solution and 90 μL MH broth were added.
(§5) (4) Incubation: the 96-well plate was placed in a 37° C. constant-temperature incubator for 18 hours, and the growth of the strains was observed. The drug concentration in the well with no microbial growth was recorded as the MIC.
In general terms: Broth dilution looks for growth in wells or tubes with falling amounts of substance.

Another experiment concerns Enterobacter cloacae. Described as above. Particulars: individual compound, read-out: MIC. The procedure:
as §1, §2, §3, §4, §5

The next experiment concerns Escherichia coli. The experiment is described as above. Particulars: individual compound, read-out: MIC. As to the method:
as §1, §2, §3, §4, §5

The test system of experiment [2] is drug-resistant Enterobacteriaceae. The experiment is described as follows: MIC assay of individual compounds, summary over Enterobacteriaceae strains. Particulars: against the aforementioned Enterobacteriaceae. As to the method: as §1, §2, §3, §4, §5
Experiment [3] deals with Klebsiella pneumoniae. The experiment is described as follows: Combined in vitro use, checkerboard dilution method. The settings on record: compound of formula (I-1) combined with relebactam. As to the method: (§6) Mueller-Hinton broth (MH broth) medium, Trypticase Soy Broth (TSB Broth) medium, purchased from BD Difco, Cockeysville, MD, USA; • 96-well plate: Corning Costar, Cambridge, MA, USA; • Test method: the checkerboard dilution method was used for determination.
(§7) (1) Preparation of the test samples: 4 mg of each sample was taken and was prepared into a test solution at 2,048 μg/mL with MH broth, and the test solution was diluted two-fold in a 96-well plate to prepare solutions of a series of gradient concentrations.
as §3
(§8) (3) Addition of the samples: 10 μL of the bacteria solution with a concentration of 6×10^5 CFU/mL was pipetted into each well of the 96-well plate. Each well contained the antibacterial drugs (the compound of formula (I-1) and the compound of formula (I-2)) diluted two-fold with broth and the aforementioned lactamase inhibitor or efflux pump inhibitor. […] The samples were mixed thoroughly. Three parallel experiments were set up for each concentration and the results were averaged. To the negative control group, 10 μL of the bacterial solution and 90 μL MH broth were added.
(§9) (4) Incubation: the 96-well plate was placed in a 37° C. constant-temperature incubator for 18 hours, and the growth of the strains was observed.
(§10) (5) Calculation: The in vitro effect of each drug-inhibitor combination was analyzed by calculating the FICI value: FICI=(MIC of drug A in the combination/MIC of drug A alone)+ (MIC of drug B in the combination/MIC of drug B alone).
(§11) In order to ensure the reliability of the data, three repeated tests were conducted on different dates and the results were averaged.

The subject of experiment [4] is Acinetobacter baumannii. The experiment can be described thus: MIC assay of individual compounds (microdilution, CLSI/NCCLS). As to the method:
as §1, §2, §3, §4, §5

Experiment [5] relates to Pseudomonas aeruginosa. Described as above. As to the method: as §1, §2, §3, §4, §5
In experiment [6] the test system is Acinetobacter baumannii or Pseudomonas aeruginosa. The experiment can be described thus: MIC assay of individual compounds, summary over non-fermenter strains. Particulars: various Acinetobacter baumannii or Pseudomonas aeruginosa strains. The procedure:
as §1, §2, §3, §4, §5

Experiment [7] deals with Acinetobacter baumannii. The experiment can be described thus: Combined in vitro use, checkerboard dilution method. The procedure: as §6, §7, §3, §8, §9, §10, §11
The test system of experiment [8] is Pseudomonas aeruginosa. The description is as above. The procedure:
as §6, §7, §3, §8, §9, §10, §11

Setting [9] is: ATCC19606, individual compound, Acinetobacter baumannii ATCC 19606, read-out: MIC.

As for `O=C(NC1CCNCC1)[C@@H]1CC[C@@H]2CN1C(=O)N2OS(=O)(=O)O` [Relebactam, relebactam], the MIC was 64 µg/mL (≈ 184 µM) with Klebsiella pneumoniae [1] (ATCC2146, individual compound, Klebsiella pneumoniae ATCC 2146); 64 µg/mL (≈ 184 µM) in the experiment with Klebsiella pneumoniae [1] (ATCC700603, individual compound, Klebsiella pneumoniae ATCC 700603); 64 µg/mL (≈ 184 µM) in the experiment on Klebsiella pneumoniae [1] (individual compound, Klebsiella pneumoniae CCPM(A)-0814R18); 64 µg/mL (≈ 184 µM) in the experiment on Klebsiella pneumoniae [1] (individual compound, Klebsiella pneumoniae CCPM(A)-0814R33); greater than 128 µg/mL in the experiment with Klebsiella pneumoniae [1] (individual compound, Klebsiella pneumoniae CCPM(A)-081301); 64 µg/mL (≈ 184 µM) with Klebsiella pneumoniae [1] (individual compound, Klebsiella pneumoniae CCPM(A)-081715). The MIC in the experiment on Klebsiella pneumoniae [1] (individual compound, Klebsiella pneumoniae CCPM(A)-081716) was found to be 128 µg/mL (≈ 367 µM); in the experiment with Enterobacter cloacae (ATCC2468, Enterobacter cloacae ATCC 2468), 128 µg/mL (≈ 367 µM); with Enterobacter cloacae (Enterobacter cloacae CCPM(A)-P-111719) it was 128 µg/mL (≈ 367 µM); with Escherichia coli (ATCC2469, Escherichia coli ATCC 2469), 64 µg/mL (≈ 184 µM); in the experiment with Escherichia coli (Escherichia coli CCPM(A)-P-071301), 64 µg/mL (≈ 184 µM). Moreover, the “activity of the inhibitor itself” value in experiment [2] is on record as “relatively weak activities”. The values for the MIC in combination in the experiment on Klebsiella pneumoniae [3] (Klebsiella pneumoniae ATCC 2146) and in the experiment with Klebsiella pneumoniae [3] (Klebsiella pneumoniae ATCC 700603) were 0.5 µg/mL and 8 µg/mL, respectively.
Consider `C[C@H]1[C@H]2CC[C@H]3[C@@H]4CC=C5C[C@@H](N(C)C)CC[C@]5(C)[C@H]4CC[C@]23CN1C` [Conessine, conessine], for which the MIC in the experiment on Acinetobacter baumannii [4] (setting [9]) was greater than 256 µg/mL; in the experiment on Pseudomonas aeruginosa [5] (individual compound, Pseudomonas aeruginosa PAO1(CCPM(A)-P-09000032), read-out: MIC) it was greater than 256 µg/mL. Besides, the “activity of the inhibitor itself” value in [6] is listed as “relatively weak activities”. In addition, the MIC in combination in the experiment with Acinetobacter baumannii [7] (compound of formula (I-1) combined with conessine, Acinetobacter baumannii ATCC 19606) is 4 µg/mL; with Pseudomonas aeruginosa [8] (compound of formula (I-1) combined with conessine, Pseudomonas aeruginosa PAO1(CCPM(A)-P-09000032)) it was greater than 256 µg/mL.
With `N=C(N)NCCC[C@H](NC(=O)[C@@H](N)Cc1ccccc1)C(=O)Nc1ccc2ccccc2c1` [PAβN, PaβN] (H-Phe-Arg-βNA), the MIC in the experiment on Acinetobacter baumannii [4] (ATCC17978, individual compound, Acinetobacter baumannii ATCC 17978, read-out: MIC) is greater than 256 µg/mL; in the experiment on Acinetobacter baumannii [4] (setting [9]) it was greater than 256 µg/mL; in the experiment on Acinetobacter baumannii [4] (Acinetobacter baumannii) it was greater than 256 µg/mL; with Pseudomonas aeruginosa [5] (Pseudomonas aeruginosa) it was greater than 256 µg/mL; in the experiment with Pseudomonas aeruginosa [5] (Pseudomonas aeruginosa, ATCC27853), greater than 256 µg/mL; with Pseudomonas aeruginosa [5] (Pseudomonas aeruginosa, PAO1) it was greater than 256 µg/mL. Besides, the “activity of the inhibitor itself” value in [6] is “relatively weak activities”. Further, the MIC in combination in the experiment with Acinetobacter baumannii [7] (compound of formula (I-1) combined with PAβN, Acinetobacter baumannii CCPM(A)-P-101633(CRAB)) was greater than 0.5 µg/mL; with Pseudomonas aeruginosa [8] (compound of formula (I-1) combined with PAβN, Pseudomonas aeruginosa ATCC27853), 64 µg/mL; with Pseudomonas aeruginosa [8] (compound of formula (I-1) combined with PAβN, Pseudomonas aeruginosa CCPM(A)-P-091626(CRPA)) it was 128 µg/mL; in the experiment with Pseudomonas aeruginosa [8] (compound of formula (I-1) combined with PAβN, Pseudomonas aeruginosa PAO1(CCPM(A)-P-09000032)) it was 64 µg/mL.
